# Experimental data from patent US20180199575A1, “SUBSTITUTED OXOTETRAHYDROQUINOLINYLPHOSPHINIC ACID AND PHOSPHINIC ACID AMIDES OR SALTS THEREOF AND USE THEREOF TO INCREASE STRESS TOLERANCE IN PLANTS” (priority 2015, published 2018).
# Biological target: T1, phosphatase ABI1 via the co-regulator RCAR11/PYR1 (Arabidopsis thaliana, UniProt O49686+P49597)
# T1 sequence (O49686 1-191): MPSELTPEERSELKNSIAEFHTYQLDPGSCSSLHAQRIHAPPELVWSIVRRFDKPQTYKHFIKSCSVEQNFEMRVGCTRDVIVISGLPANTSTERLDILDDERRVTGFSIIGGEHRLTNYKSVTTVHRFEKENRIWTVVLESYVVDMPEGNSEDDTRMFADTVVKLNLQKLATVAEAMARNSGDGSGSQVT
# T1 sequence (P49597 1-434): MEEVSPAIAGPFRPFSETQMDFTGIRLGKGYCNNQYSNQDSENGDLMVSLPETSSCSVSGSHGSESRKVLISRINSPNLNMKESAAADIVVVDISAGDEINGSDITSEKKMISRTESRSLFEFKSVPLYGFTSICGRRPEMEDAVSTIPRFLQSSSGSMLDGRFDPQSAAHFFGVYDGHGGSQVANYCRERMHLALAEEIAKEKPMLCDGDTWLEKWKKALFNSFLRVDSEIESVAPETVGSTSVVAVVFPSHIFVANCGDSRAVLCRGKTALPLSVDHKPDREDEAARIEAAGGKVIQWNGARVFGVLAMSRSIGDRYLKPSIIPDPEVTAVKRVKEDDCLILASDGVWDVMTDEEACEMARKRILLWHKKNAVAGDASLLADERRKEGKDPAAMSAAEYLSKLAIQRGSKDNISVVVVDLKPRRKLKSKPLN
# Assay: In vitro assay: inhibition of the phosphatase ABI1 via the co-regulator RCAR11/PYR1 (dephosphorylation of 4-methylumbelliferyl phosphate, fluorescence)
# Assay type: biochemical
# Settings: 5 μM substance in a solution of DMSO and water, MUP substrate
# Description: Effects of the phytohormone abscisic acid (ABA) on the behavior of plants under abiotic stress and the mechanism of action of ABA are described in the literature (cf. Abrams et al., WO97/23441, Park et al. Science, 2009, 324, 1068; Grill et al. Science, 2009, 324, 1064; Tanokura et al. Biophysics, 2011, 7, 123; Schroeder et al. Plant J. 2010, 61, 290). Therefore, it is possible with the aid of a suitable in vitro test system to derive a correlation between the action of ABA and the stress response of a plant under abiotic stress. In the event of water deficiency (drought stress), plants form the phytohormone abscisic acid (ABA). […]
# The assay described hereinafter utilizes the inhibition of the phosphatase ABI1 via the co-regulator RCAR11/PYR1 aus Arabidopsis thaliana. For the determination of activity, the dephosphorylation of 4-methylumbelliferyl phosphate (MUP) was measured at 460 nm. […]
# Enzyme buffer mix and substrate mix were made up 5 minutes prior to the addition and warmed to a temperature of 35° C. […] Finally, a relative fluorescence measurement was made at 35° C. with a BMG Labtech “POLARstar Optima” microplate reader using a 340/10 nm excitation filter and a 460 nm emission filter. […]
smiles,measurement,value
CC1=CC(=O)CC(C)(C)[C@@]1(O)/C=C/C(C)=C\C(=O)O [abscisic acid],ABI1 inhibition,++++ (inhibition≥90%)
